In patent US20260273046A1, “METHOD OF VACCINATING FOR CANCER AND DEVICE AND KIT THEREFOR” (priority 2023, published 2026):

What was measured:
human THP-1 cells = assay: CD80 and CD86 expression on stimulated THP-1 cells (flow cytometry); assay type: cell-based; details: Nano-11 80 μg/ml, ADU-S100 5 μg/ml, 24 and 48 hours
Description: For preparation of cells for activation in vitro, human THP-1 cells (TIB-202; American Type Culture Collection Manassas, VA) were cultured in complete RPMI (RPMI 1640 supplemented with 2 mM L-glutamine, 55 μM β-mercaptoethanol, 1×non-essential amino acids, 10 mM HEPES, 100 U/ml penicillin, 100 μg/ml streptomycin, and 0.25 μg/ml amphotericin) with 10% FBS. Cells were seeded at a density of 5×10^5 cells/well in a 96-well plate, stimulated with Nano-11 (80 μg/ml) and ADU-S100 (5 μg/ml) for 24 hours and 48 hours at 37° C. with 5% CO2, and then processed for flow cytometry analysis. […] THP1-Dual cells were subsequently stimulated with Nano-11 (80 μg/ml) and ADU-S100 (5 μg/ml) for 24 hours and 48 hours at 37° C. with 5% CO2, and the supernatants were collected for NF-κB and IRF pathway activation quantification.
(§1) For flow cytometry analysis, single-cell suspensions were prepared from isolated splenocytes or lymph nodes and washed with Cell Staining Buffer (CSB; BioLegend, San Diego, CA). […] Flow cytometry was conducted using an Attune NxT flow cytometer (Invitrogen, Waltham, MA), and the data were analyzed using FlowJo software (FlowJo, Ashland, OR).

NF-κB signaling pathway = assay: NF-κB-SEAP reporter in THP1-Dual cells; assay type: cell-based, human; details: Nano-11 80 μg/ml, ADU-S100 5 μg/ml; FIG. 1E
Description: (§2) For preparation of cells for activation in vitro, human THP-1 cells (TIB-202; American Type Culture Collection Manassas, VA) were cultured in complete RPMI (RPMI 1640 supplemented with 2 mM L-glutamine, 55 μM β-mercaptoethanol, 1×non-essential amino acids, 10 mM HEPES, 100 U/ml penicillin, 100 μg/ml streptomycin, and 0.25 μg/ml amphotericin) with 10% FBS. Cells were seeded at a density of 5×10^5 cells/well in a 96-well plate, stimulated with Nano-11 (80 μg/ml) and ADU-S100 (5 μg/ml) for 24 hours and 48 hours at 37° C. with 5% CO2, and then processed for flow cytometry analysis. Similarly, the NF-κB-SEAP and IRF-Luc reporter THP1-Dual cells (InvivoGen, San Diego, CA) were grown at a density of 1×10^5 cells/well in a 96-well plate in complete RPMI supplemented with 10% FBS, 100 μg/ml zeocin, 100 μg/ml normocin, and 10 μg/ml blasticidin. THP1-Dual cells were subsequently stimulated with Nano-11 (80 μg/ml) and ADU-S100 (5 μg/ml) for 24 hours and 48 hours at 37° C. with 5% CO2, and the supernatants were collected for NF-κB and IRF pathway activation quantification.

IRF3 signaling pathway = assay: IRF-Lucia luciferase reporter in THP1-Dual cells; assay type: cell-based, human; details: Nano-11 80 μg/ml, ADU-S100 5 μg/ml; FIG. 1F
Description: as §2

[1] = tested on: GC B cells and follicular helper T (Tfh) cells; assay: Intradermal immunization with OVA: draining lymph node, GC B cells and Tfh cells; assay type: in vivo, C57BL/6J mice; details: 10 days after second i.d. injection of the ear pinna
Description: (§3) For all experiments, six- to eight-week-old female C57BL/6J mice were purchased from the Jackson Laboratory (Bar Harbor, ME). They were housed in ventilated cages with ad libitum access to food and water, with three to four animals per box. The room was kept at 20±2° C. and 50±15% relative humidity, with a light/dark cycle of 12 hours. An acclimatization period of one week was given to the mice before the onset of the experiments. The Purdue University Animal Care and Use Committee gave approval to all animal experiments. Mice received 20 μl of vaccine through intradermal injection into the pinna of the ear. The vaccines were administered again after 7 or 21 days. Inhalational isoflurane was used to induce anesthesia in mice. Blood and tissue samples were collected 10 days after the second immunization, unless otherwise specified.
as §1, with “CA). The staining protocols were conducted in accordance with the manufacturer's instructions, and unless otherwise specified, all mAbs were obtained from BioLegend.” for “CA).”

OVA = assay: ELISA of serum OVA-specific IgG, IgG1, IgG2c titers; assay type: in vivo, C57BL/6J mice; details: 10 days after second i.d. vaccination with OVA
Description: as §3
OVA-specific IgG, IgG1, and IgG2c titers were measured by enzyme-linked immunosorbent assays (ELISA) on serum samples taken 10 days following the second vaccination, as previously reported (Hernandez-Franco (2021)). […] The reaction was stopped with the addition of 50 μl 2 M sulfuric acid, and absorbance at 450 nm (OD 450) was determined using the Synergy HT microplate reader (BioTek, Winooski, VT). End-point titers for OVA-specific antibodies were determined when the dilution at which OD 450 nm approached 0.2. […]

[2] = tested on: SIINFEKL-specific B3Z CD8+ T cell hybridoma; assay: B3Z antigen cross-presentation assay with DC2.4 cells; assay type: cell-based, murine; details: OVA with 80 μg/ml Nano-11 and/or 5 μg/ml ADU-S100; OD 590
Description: The B3Z CD8^+ T cell hybridoma cell line that expresses β-galactosidase under the control of the IL-2 promoter was utilized to detect antigen cross-presentation of the OVA 257-264 (SIINFEKL, InvivoGen, San Diego, CA) peptide (see Cruz et al., Annu. Rev. Immunol. 35: 149-176 (2017), which is incorporated herein by reference). Briefly, DC2.4 cells at 1×10^5 cells/well on 96-well round bottom plates were cultured in complete RPMI containing 10% FBS. The DC2.4 cells were stimulated with 10, 100, or 1,000 μg/ml OVA adsorbed to 80 μg/ml Nano-11 or the NanoST nanoparticle adjuvant comprised of 80 μg/ml Nano-11 and 5 μg/ml ADU-S100 (NanoST) for 3 hours at 37° C. with 5% CO2. Cells in media only or treated with 0.5 μg/ml OVA 257-264 (SIINFEKL) served as negative and positive controls, respectively. The cells were centrifuged at 300×g for 5 minutes and then washed three times with 200 μl of sterile PBS/0.1% BSA. Following fixation with 200 μl of phosphate-buffered saline (PBS)/0.2% paraformaldehyde for 15 minutes at 4° C., cells were washed twice with complete RPMI. Each well was seeded with 1×10^5 B3Z cells in complete RPMI containing 10% FBS for 16 hours at 37° C. with 5% CO2. […] After 2, 4, 6, 8, 12, and 24 hours, the conversion of […] was quantified by measuring the absorbance at 590 nm (OD 590) using a microplate reader (BioTek Instruments, Winooski, VT).

human STING alleles = details: cited from earlier work
[3] = tested on: metastatic solid tumors or lymphomas; details: intra-tumoral injection, patients; cited from earlier work
[4] = tested on: recurrent or metastatic head and neck squamous cell carcinoma; details: in conjunction with pembrolizumab; cited from earlier work
[5] = tested on: tumor-specific CD8+ T cells; details: intratumoral injection; cited from earlier work
B16-OVA melanoma cells = assay: Preventive intradermal vaccination, B16-OVA tumor challenge; assay type: in vivo, C57BL/6J mice; details: two i.d. immunizations, three-week interval, then s.c. inoculation
Description: (§4) The efficacy of preventive cancer vaccines was investigated by two intradermal injections with OVA, Nano-11+OVA, NanoST+OVA, or PBS with a 21-day interval. Eleven days following the second injection, mice were inoculated subcutaneously in the flank with 1.0×10^6 B16-OVA, B16, or 2.5×10^6 E.G7-OVA cells suspended in 100 μl of PBS. […] Using a caliper, the length (maximum longitudinal dimension) and width (maximum transverse dimension) of the subcutaneous tumor were measured in order to determine the approximate volume. Tumor volume was calculated using the ellipsoidal formula: V=½×(Length×Width^2). Each tumor was measured by three observers to account for interobserver variability. The tumor endpoint measurements were taken when the tumors reached a volume of 2,000 mm^3, when the tumors became ulcerated, when the body condition scores dropped below 2, or when the mice became moribund. Mice without palpable tumors 32 days after tumor inoculation were considered tumor-free and euthanized.
(§5) To evaluate the contribution of CD4^+ and CD8^+ T cells response to prophylactic-mediated vaccine protection against B16-OVA and E.G7-OVA tumor formation, C57BL/6J mice were vaccinated with OVA, Nano-11+OVA, or NanoST+OVA, and 21 days later the vaccination was repeated. […] The tumor growth and survival of mice were monitored for 33 days post-tumor inoculation.

E.G7-OVA lymphoma cells = assay: Preventive intradermal vaccination, E.G7-OVA tumor challenge; assay type: in vivo, C57BL/6J mice; details: two i.d. immunizations, three-week interval, then s.c. inoculation
Description: as §4, §5

B16-OVA tumors = assay: Therapeutic intradermal vaccination of B16-OVA-bearing mice; assay type: in vivo, C57BL/6J mice; details: i.d. vaccination at 8 and 15 days post-tumor inoculation
Description: (§6) To mimic therapeutic immunotherapy, C57BL/6J mice were injected subcutaneously (s.c.) with 1.0×10^6 B16-OVA or 2.5×10^6 E.G7-OVA cells on day 0 to establish the tumor model. The B16-OVA-bearing mice received the same intradermal prophylactic vaccination (OVA, Nano-11+OVA, or NanoST+OVA) 8 days after tumor inoculation, followed by a second injection on day 15. The identical vaccination regimen was administered to E.G7-OVA-26 bearing mice at 1 and 21 days after tumor inoculation. The tumor endpoint measurements were recorded as described under prophylactic cancer vaccines. Mice without visible tumors were deemed tumor-free and euthanized 32 or 33 days post-tumor inoculation.

E.G7-OVA tumors = assay: Therapeutic intradermal vaccination of E.G7-OVA-bearing mice; details: by day 10
Description: as §6

## Nc1ncnc2c1ncn2[C@@H]1O[C@@H]2COP(=O)([S-])O[C@@H]3[C@H](O)[C@@H](COP([O-])(=S)O[C@H]2[C@H]1O)O[C@H]3n1cnc2c(N)ncnc21.[Na+].[Na+] (stereo partly drawn) [ADU-S100]
Human THP-1 cells; FIGS. 1A, 1C
  CD80 expression: induced CD80 expression
Human THP-1 cells; FIGS. 1B, 1D
  CD86 expression: neither of which had any effect on CD86 expression
NF-κB signaling pathway
  NF-κB activation: activated NF-κB and IRF3
IRF3 signaling pathway
  IRF3 activation: activated NF-κB and IRF3
[1]
  size of draining lymph node (superficial parotid): enlarged draining lymph node
OVA
  anti-OVA IgG1 titer: enhanced anti-OVA total IgG and IgG1 titers
  anti-OVA total IgG titer: enhanced anti-OVA total IgG and IgG1 titers
[2]
  cross-presentation of OVA and activation of B3Z CD8+ T cells by DC2.4 cells: decreased the cross-presentation of OVA
Human STING alleles
  affinity to human STING alleles: superior affinity to all known human STING alleles
[3]
  anti-tumor activity: failed to demonstrate conclusive evidence of anti-tumor activity
  dose-limiting toxicities: no dose-limiting toxicities
[4]
  adverse reactions: no adverse reactions
  anti-tumor efficacy: only modest anti-tumor efficacy
[5]
  generation of tumor-specific CD8+ T cells: leads to the generation of tumor-specific CD8

## OVA: endotoxin-free ovalbumin, model tumor-specific antigen, given unadjuvanted
B16-OVA melanoma cells
  development of B16-OVA tumors: positive for tumors
E.G7-OVA lymphoma cells
  development of E.G7-OVA lymphomas: positive for tumors
B16-OVA tumors
  survival of B16-OVA tumor-bearing mice: none of the OVA-vaccinated mice survived to day 20
E.G7-OVA tumors
  tumor formation: 100%
